Experimental data as given in patent publication US20190196073A1, “COMPOSITION, FILM, NEAR INFRARED CUT FILTER, PATTERN FORMING METHOD, LAMINATE, SOLID IMAGE PICKUP ELEMENT, IMAGE DISPLAY DEVICE, CAMERA MODULE, AND INFRARED SENSOR” (FUJIFILM Corporation, priority 2016, published 2019).
≈ marks a conversion by molar mass, not a printed value.

How the values were obtained:
[1] = Measurement of absorption maximum of near infrared absorbing compound in solution; type: physicochemical
Excerpt: In addition, in the present invention, a case where the near infrared absorbing compound “has an absorption maximum in a wavelength range of 650 to 1000 nm” represents the near infrared absorbing compound has a maximum absorbance in a wavelength range of 650 to 1000 nm in an absorption spectrum of the near infrared absorbing compound in a solution. A measurement solvent used for measuring an absorption spectrum of the near infrared absorbing compound in the solution is not particularly limited as long as the near infrared absorbing compound is soluble therein. From the viewpoint of solubility, for example, chloroform, dimethylformamide, tetrahydrofuran, or methylene chloride can be used. For example, in the case of a compound which is soluble in chloroform, chloroform is used as the measurement solvent. In the case of a compound which is not soluble in chloroform, methylene chloride is used. In addition, in the case of a compound which is not soluble in chloroform and methylene chloride, dimethylformamide is used. In addition, in the case of a compound which is not soluble in chloroform, methylene chloride, and dimethylformamide, tetrahydrofuran is used.
<Measurement of Absorption Maximum of Near Infrared Absorbing Compound>
A near infrared absorbing compound shown in the following tables was dissolved in a measurement solvent shown in the following tables to prepare a sample solution. Using a spectrophotometer U-4100 (manufactured by Hitachi High-Technologies Corporation), an absorbance of the sample solution in a wavelength range of 300 to 1300 nm was measured to obtain an absorption maximum.

[2] = Measurement of solubility of near infrared absorbing compound in propylene glycol methyl ether acetate; conditions: for solubility at 30 min: propylene glycol methyl ether acetate, 25 °C, organic solvent or mixture, thermodynamic from solid
Procedure: (§1) Under the atmospheric pressure, about 100 mg (a precisely weighed value is represented by X mg) of the near infrared absorbing compound is added to 1 L of propylene glycol methyl ether acetate at 25° C., and the components are stirred for 30 minutes. Next, the solution is left to stand for 5 minutes and then is filtered, and the filtrate is dried under reduced pressure at 80° C. for 2 hours is precisely weighed (a precisely weighed value is represented by Y mg). The solubility of the near infrared absorbing compound dissolved in propylene glycol methyl ether acetate is calculated from the following expression.

[3] = physchem; conditions: 25 °C, organic solvent or mixture, thermodynamic from solid
Procedure: as §1

| Compound | Absorption Maximum ([1]; measurement solvent Chloroform) [nm] | solubility at 30 min [3] [µg/mL] | also measured |
| --- | --- | --- | --- |
| 4,5-octakis(phenylthio)-3,6-{tetrakis(2,6-dimethylphenoxy)-tetrakis(n-hexyamino)}copper phthalocyanine [AR-1, reference compound] | 780 |  |  |
| CCCCCCCC(CCCCCCC)N1C(=O)c2ccc3c4ccc5c6ccc7c8ccc9c%10c(ccc(c%11ccc(c%12ccc(c%13ccc(c2c3%13)C1=O)c4c5%12)c6c7%11)c%108)C(=O)N(C(CCCCCCC)CCCCCCC)C9=O [AR-4, reference compound] | 765 |  | solubility at 30 min [2]: 32.1 µg/mL (≈ 30.3 µM) |
| O=C1c2ccc3c4ccc5c6ccc7c8ccc9c%10c(ccc(c%11ccc(c%12ccc(c%13ccc(c2c3%13)C(=O)N1c1ccccc1)c4c5%12)c6c7%11)c%108)C(=O)N(c1ccccc1)C9=O [Example A-2] |  |  | Absorption Maximum ([1]; measurement solvent Methylene Chloride): 765 nm; solubility at 30 min [2]: 0.64 µg/mL (≈ 0.809 µM) |
| c1ccc2cc3c(cc2c1)C1=NC3=Nc2c3cc4ccccc4cc3c3[n]2[Cu][n]2c(c4cc5ccccc5cc4c2=NC2=NC(=N3)c3cc4ccccc4cc32)=N1 [Example A-3] | 775 |  | Solubility ([2]; in propylene glycol methyl ether acetate at 25° C., about 100 mg added to 1 L): 0.33 µg/mL |
| NC(=O)c1cccc(N2C(=O)NC(=O)/C(=C/C=C(/C=C/c3c([O-])[nH]c(=O)n(-c4cccc(C(N)=O)c4)c3=O)c3ccccc3)C2=O)c1.[K+] [Example A-4] |  |  | Absorption Maximum ([1]; measurement solvent Dimethylformamide): 740 nm; solubility at 30 min [2]: 5.82 µg/mL |
| CCOc1ccc(OCC)c2c1C1=NC/2=N\c2c3c(OCC)ccc(OCC)c3c3[n]2[Zn][n]2/c(c4c(OCC)ccc(OCC)c4/c2=N/C2=NC(=N\3)/c3c(OCC)ccc(OCC)c32)=N\1 [Example A-6] | 744 |  | solubility at 30 min [2]: 15.5 µg/mL |
| O=C1C2=C(c3cnc4ccccc4n3)N(B(c3ccccc3)c3ccccc3)C(=O)C2=C(c2cnc3ccccc3n2)N1B(c1ccccc1)c1ccccc1 [Example A-21] | 710 | 5.47 (≈ 7.59 µM) |  |
| CC1N(C)c2cc(NC(=O)CSC(=N)N)c(C3=C([O-])/C(=c4\cc5c(cc4NC(=O)CSC(=N)N)=[N+](C)C(C)C5(C)C)C3=O)cc2C1(C)C (stereo not drawn) [Example A-23] | 708 | 5.62 (≈ 8.13 µM) |  |
| CC1N(C)c2cc(NC(=O)c3ccc4c(c3)C(=O)N(C)C4=O)c(C3=C([O-])/C(=c4\cc5c(cc4NC(=O)c4ccc6c(c4)C(=O)N(C)C6=O)=[N+](C)C(C)C5(C)C)C3=O)cc2C1(C)C (stereo not drawn) [Example A-24] | 711 | 7.88 (≈ 9.46 µM) |  |
| CCNC(=O)NC1=CC(=[N+](CC)CC)C=C/C1=C1/C(=O)C(c2ccc(N(CC)CC)cc2NC(=O)NCC)=C1[O-] [Example A-25] | 680 | 2.51 (≈ 4.57 µM) |  |
| CC1C(/C=C2/C(=O)C(/C=C3/C(C)c4cc(C(N)=O)ccc4N3C)=C2[O-])=[N+](C)c2ccc(C(N)=O)cc21 (stereo not drawn) [Example A-26] | 665 | 11.2 (≈ 23.2 µM) |  |
| CC(=O)NC1CCC2(CC1)N=c1/c(=C3/C(=O)C(c4ccc5cccc6c5c4NC4(CCC(NC(C)=O)CC4)N6)=C3O)ccc3cccc(c13)N2 (stereo not drawn) [Example A-27] | 810 | 6.74 (≈ 10.1 µM) |  |
| C/C(C1=C(O)/C(=C(/C)C2=Nc3ccccc3C2CCN)C1=O)=C1/Nc2ccccc2C1CCN (stereo not drawn) [Example A-28] | 737 | 1.92 (≈ 4.22 µM) |  |
| NC(=O)C1N=c2/c(=C3/C(=O)C(c4ccc5cccc6c5c4NC(C(N)=O)N6)=C3O)ccc3cccc(c23)N1 (stereo not drawn) [Example A-29] | 810 | 0.57 (≈ 1.13 µM) |  |
| O=C1C(c2ccc(N(c3ccccc3)c3ccccc3)cc2NS(=O)(=O)C(F)(F)F)=C(O)/C1=C1/C=CC(N(c2ccccc2)c2ccccc2)=C/C1=N\S(=O)(=O)C(F)(F)F [Example A-30] | 737 | 3.58 (≈ 4.15 µM) |  |
| O=C1C(c2ccc3cccc4c3c2NB(c2ccc(O)cc2)N4)=C(O)/C1=c1/ccc2cccc3c2c1=NB(c1ccc(O)cc1)N3 [Example A-31] | 823 | 7.69 (≈ 12.9 µM) |  |
| CCN1/C(=C/C2=C([O-])C(=C/c3sc4c5ccccc5ccc4[n+]3CC)/C2=O)Sc2c1ccc1ccccc21 [Example A-32] | 705 | 0.42 (≈ 0.788 µM) |  |
| CCOC(=O)NC1=CC(=[N+](CC)CC)C=C/C1=C1/C(=O)C(c2ccc(N(CC)CC)cc2NC(=O)OCC)=C1[O-] [Example A-34] | 680 | 7.72 (≈ 14 µM) |  |
| CC(=O)NC1=CC(=[N+]2CCCC2)C(C)=C/C1=C1/C(=O)C(c2cc(C)c(N3CCCC3)cc2NC(C)=O)=C1[O-] [Example A-35] | 700 | 5.11 (≈ 9.93 µM) |  |
| CCN(CC)c1cc2[nH]c(=O)c3ccc(cc3)c(=O)[nH]c3cc(=[N+](CC)CC)c(C)cc3c3c([O-])c(c3=O)c2cc1C [Example A-36] | 715 | 4.29 (≈ 7.6 µM) |  |
| CC1(C)c2ccccc2N(c2cc(O)c(C3=C([O-])C(=C4C(O)=CC(=[N+]5c6ccccc6C(C)(C)c6ccccc65)C=C4O)C3=O)c(O)c2)c2ccccc21 [Example A-37] | 675 | 0.65 (≈ 0.912 µM) |  |
| O=C1C(=C2C(O)=CC(=[N+]3c4ccccc4-c4ccccc43)C=C2O)C([O-])=C1c1c(O)cc(-n2c3ccccc3c3ccccc32)cc1O [Example A-38] | 750 | 0.88 (≈ 1.4 µM) |  |
| O=C1C(c2ccc(N3CCCCC3)cc2NC(=O)C(F)(F)F)=C([O-])/C1=C1\C=CC(=[N+]2CCCCC2)C=C1NC(=O)C(F)(F)F [Example A-39] | 698 | 2.68 (≈ 4.3 µM) |  |
| CC1=CC(=[N+](c2ccccc2)c2ccccc2)S/C1=C1/C(=O)C(c2sc(N(c3ccccc3)c3ccccc3)cc2C)=C1[O-] [Example A-40] | 706 | 11.2 (≈ 18.4 µM) |  |
| CNC(=O)Nc1cc(N2CCCC2)c(C)cc1C1=C([O-])/C(=c2\cc3c4c(c2NC(=O)NC)CCC[N+]=4CCC3)C1=O [Example A-41] | 710 | 0.94 (≈ 1.69 µM) |  |
| CCN1/C(=C/C2=C([O-])C(=C\c3sc4ccccc4[n+]3CC)/C(=O)C2=O)Sc2ccccc21 [Example A-43] | 848 | 2.22 (≈ 4.82 µM) |  |
